Literature values as cited in US20040101539A1, “Aqueous dispersion of low-melting organic solids” (priority 2002, published 2004).

Settings: at 25° C.

CCCCCCCCn1sc(Cl)c(Cl)c1=O [DCOIT, 4,5-dichloro-2-octyl-3(2H)-isothiazolone]
water solubility: 2 ppm
